# Test results taken from the supplement of paper PMC10307832.
# Tests used:
# Assay in all cases: relative viability (nuclei count vs DMSO), 5 days (fraction); higher = more cells survive
# [1] = compound: CS(=O)(=O)c1ccc(C(=O)Nc2ccc(Cl)c(-c3ccccn3)c2)c(Cl)c1 [Vismodegib] + COc1cccc2cc(-c3nc([C@H]4CC[C@H](C(=O)O)CC4)n4ncnc(N)c34)[nH]c12 [OSI-027] (partner 0.5 µM)
# Summary of the method: (§1)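 Relative viability divides the nuclei count in treated wells by that in vehicle wells. Lung cancer cell lines were seeded in 1536-well plates, dosed by pin tool the next day, and fixed and stained after 5 days in one step with final 0.05% Triton X-100, 1% formaldehyde and 1 ug/ml Hoechst. Dosing was a single drug or a fixed anchor-drug dose plus five library-drug doses (not always all listed) in √10 steps, and values are medians of duplicate plates imaged at 4×.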
# [2] = compound: CS(=O)(=O)c1ccc(-c2cnc(N)c(C(=O)Nc3ccccc3)n2)cc1 [VE-821] + CCNC(=O)c1noc(-c2cc(C(C)C)c(O)cc2O)c1-c1ccc(CN2CCOCC2)cc1 [Luminespib] (partner 0.01 µM)
# Summary of the method: as §1
# [3] = compound: CS(=O)(=O)c1ccc(-c2cnc(N)c(C(=O)Nc3ccccc3)n2)cc1 [VE-821] + Cc1nc(Nc2ncc(C(=O)Nc3c(C)cccc3Cl)s2)cc(N2CCN(CCO)CC2)n1 [Dasatinib] (partner 0.075 µM)
# Summary of the method: as §1
# [4] = compound: N#CC[C@H](C1CCCC1)n1cc(-c2ncnc3[nH]ccc23)cn1 [Ruxolitinib] + O=C(CCCCCCC(=O)Nc1ccccc1)NO [Vorinostat] (partner 1 µM)
# Summary of the method: as §1
Cell Line,relative viability ([1]; first compound 0.08 µM),relative viability ([1]; first compound 0.253 µM),relative viability ([1]; first compound 0.8 µM),relative viability ([1]; first compound 2.53 µM),relative viability ([1]; first compound 8 µM),relative viability ([2]; first compound 0.08 µM),relative viability ([2]; first compound 0.253 µM),relative viability ([2]; first compound 0.8 µM),relative viability ([2]; first compound 2.53 µM),relative viability ([2]; first compound 8 µM),relative viability ([3]; first compound 0.08 µM),relative viability ([3]; first compound 0.253 µM),relative viability ([3]; first compound 0.8 µM),relative viability ([3]; first compound 2.53 µM),relative viability ([3]; first compound 8 µM),relative viability ([4]; first compound 0.08 µM),relative viability ([4]; first compound 0.253 µM),relative viability ([4]; first compound 0.8 µM),relative viability ([4]; first compound 2.53 µM),relative viability ([4]; first compound 8 µM)
NCI-H1755,0.782,0.688,0.73,0.689,0.634,0.514,0.344,0.427,0.468,0.201,0.455,0.452,0.372,0.413,0.318,0.749,0.713,0.766,0.712,0.61
NCI-H1793,,0.246,0.248,0.242,0.23,0.155,0.234,0.175,0.162,0.121,0.376,0.371,0.437,0.427,0.386,0.832,0.87,0.823,0.877,0.872
NCI-H1915,0.669,0.592,0.536,0.566,0.608,0.816,0.752,0.698,0.726,0.525,0.335,0.295,0.345,0.33,0.332,0.467,0.488,0.565,0.461,0.332
NCI-H1944,0.413,0.391,0.422,0.388,0.442,0.835,0.698,0.421,0.803,0.416,0.22,0.213,0.185,0.27,0.228,0.63,0.537,0.605,0.483,0.521
NCI-H1975,0.724,0.633,0.686,0.632,0.607,0.213,0.197,0.26,0.193,0.193,0.372,0.287,,0.278,0.253,0.736,0.633,0.691,0.59,0.483
NCI-H1993,0.572,0.479,0.579,0.562,0.594,1.1,0.857,0.67,0.655,0.704,0.563,0.503,0.523,0.524,0.538,0.81,0.754,0.102,0.822,0.75
NCI-H2009,0.688,0.619,0.612,0.608,0.738,1.03,0.974,0.918,1.09,0.863,0.332,0.263,0.212,0.26,0.16,0.715,0.71,0.722,0.631,0.507
NCI-H2023,0.464,0.354,0.411,0.322,0.478,0.734,0.624,0.458,0.212,0.125,0.681,0.432,0.458,0.373,0.13,0.661,0.667,0.95,0.581,0.798
NCI-H2085,0.9,0.732,0.756,0.74,0.662,0.439,0.457,0.385,0.411,0.309,0.214,0.259,0.192,0.226,0.202,0.865,0.802,0.891,0.667,0.695
NCI-H2087,0.645,0.476,0.398,0.618,0.39,0.133,0.176,0.206,0.144,0.131,0.871,0.814,0.912,1.2,0.786,0.868,,0.752,0.686,0.705
NCI-H2126,0.793,0.759,,0.69,0.604,0.908,0.826,0.807,0.782,0.469,0.57,0.52,0.515,0.427,0.36,0.771,0.755,0.853,0.843,0.847
NCI-H2170,0.658,0.609,0.686,0.723,0.699,0.754,0.623,0.769,0.585,0.555,0.62,0.465,0.463,0.421,0.381,0.804,0.796,0.889,0.794,0.65
NCI-H2228,0.7,0.636,0.587,0.532,0.467,0.125,0.165,0.131,0.132,0.0911,0.602,0.457,0.621,0.528,0.31,0.595,0.717,0.9,0.69,0.37
NCI-H2342,0.698,0.651,0.522,0.627,0.637,0.8,0.65,0.552,0.708,0.717,0.331,0.329,0.311,0.324,0.293,0.82,0.706,0.833,0.724,0.823
NCI-H2347,0.568,0.454,0.304,0.425,0.454,0.399,0.418,0.238,0.505,0.582,0.299,0.319,0.344,0.329,0.262,0.68,0.546,0.568,0.566,0.622
NCI-H2405,0.621,0.615,0.573,0.621,0.639,0.758,0.735,0.437,0.712,0.594,0.178,0.211,0.202,0.203,0.205,1,0.957,1.05,1.19,0.743
